As a reminder, the inhibition is the percentage by which the read-out fell short of the control. By IC50 is commonly meant the midpoint of a concentration-inhibition curve.

*1 amine or outer side, *2 acyl side, *3 side chain or, on linkers, in order; H or OH if unused. Where a SMILES comes first, the peptide text is derived from it. The star is where a group is joined. CO = O=C([*:1])[*:2]; Bn = c1ccc(C*)cc1; OtBu = CC(C)(C)O*

One assay deals with T1, N-type Ca2+ channels in IMR-32 cells (Homo sapiens, UniProt Q00975).
T1 construct: host or cells: IMR-32 cells, differentiated with dibutyryl cAMP and bromodeoxyuridine
T1 sequence (Q00975 whole entry): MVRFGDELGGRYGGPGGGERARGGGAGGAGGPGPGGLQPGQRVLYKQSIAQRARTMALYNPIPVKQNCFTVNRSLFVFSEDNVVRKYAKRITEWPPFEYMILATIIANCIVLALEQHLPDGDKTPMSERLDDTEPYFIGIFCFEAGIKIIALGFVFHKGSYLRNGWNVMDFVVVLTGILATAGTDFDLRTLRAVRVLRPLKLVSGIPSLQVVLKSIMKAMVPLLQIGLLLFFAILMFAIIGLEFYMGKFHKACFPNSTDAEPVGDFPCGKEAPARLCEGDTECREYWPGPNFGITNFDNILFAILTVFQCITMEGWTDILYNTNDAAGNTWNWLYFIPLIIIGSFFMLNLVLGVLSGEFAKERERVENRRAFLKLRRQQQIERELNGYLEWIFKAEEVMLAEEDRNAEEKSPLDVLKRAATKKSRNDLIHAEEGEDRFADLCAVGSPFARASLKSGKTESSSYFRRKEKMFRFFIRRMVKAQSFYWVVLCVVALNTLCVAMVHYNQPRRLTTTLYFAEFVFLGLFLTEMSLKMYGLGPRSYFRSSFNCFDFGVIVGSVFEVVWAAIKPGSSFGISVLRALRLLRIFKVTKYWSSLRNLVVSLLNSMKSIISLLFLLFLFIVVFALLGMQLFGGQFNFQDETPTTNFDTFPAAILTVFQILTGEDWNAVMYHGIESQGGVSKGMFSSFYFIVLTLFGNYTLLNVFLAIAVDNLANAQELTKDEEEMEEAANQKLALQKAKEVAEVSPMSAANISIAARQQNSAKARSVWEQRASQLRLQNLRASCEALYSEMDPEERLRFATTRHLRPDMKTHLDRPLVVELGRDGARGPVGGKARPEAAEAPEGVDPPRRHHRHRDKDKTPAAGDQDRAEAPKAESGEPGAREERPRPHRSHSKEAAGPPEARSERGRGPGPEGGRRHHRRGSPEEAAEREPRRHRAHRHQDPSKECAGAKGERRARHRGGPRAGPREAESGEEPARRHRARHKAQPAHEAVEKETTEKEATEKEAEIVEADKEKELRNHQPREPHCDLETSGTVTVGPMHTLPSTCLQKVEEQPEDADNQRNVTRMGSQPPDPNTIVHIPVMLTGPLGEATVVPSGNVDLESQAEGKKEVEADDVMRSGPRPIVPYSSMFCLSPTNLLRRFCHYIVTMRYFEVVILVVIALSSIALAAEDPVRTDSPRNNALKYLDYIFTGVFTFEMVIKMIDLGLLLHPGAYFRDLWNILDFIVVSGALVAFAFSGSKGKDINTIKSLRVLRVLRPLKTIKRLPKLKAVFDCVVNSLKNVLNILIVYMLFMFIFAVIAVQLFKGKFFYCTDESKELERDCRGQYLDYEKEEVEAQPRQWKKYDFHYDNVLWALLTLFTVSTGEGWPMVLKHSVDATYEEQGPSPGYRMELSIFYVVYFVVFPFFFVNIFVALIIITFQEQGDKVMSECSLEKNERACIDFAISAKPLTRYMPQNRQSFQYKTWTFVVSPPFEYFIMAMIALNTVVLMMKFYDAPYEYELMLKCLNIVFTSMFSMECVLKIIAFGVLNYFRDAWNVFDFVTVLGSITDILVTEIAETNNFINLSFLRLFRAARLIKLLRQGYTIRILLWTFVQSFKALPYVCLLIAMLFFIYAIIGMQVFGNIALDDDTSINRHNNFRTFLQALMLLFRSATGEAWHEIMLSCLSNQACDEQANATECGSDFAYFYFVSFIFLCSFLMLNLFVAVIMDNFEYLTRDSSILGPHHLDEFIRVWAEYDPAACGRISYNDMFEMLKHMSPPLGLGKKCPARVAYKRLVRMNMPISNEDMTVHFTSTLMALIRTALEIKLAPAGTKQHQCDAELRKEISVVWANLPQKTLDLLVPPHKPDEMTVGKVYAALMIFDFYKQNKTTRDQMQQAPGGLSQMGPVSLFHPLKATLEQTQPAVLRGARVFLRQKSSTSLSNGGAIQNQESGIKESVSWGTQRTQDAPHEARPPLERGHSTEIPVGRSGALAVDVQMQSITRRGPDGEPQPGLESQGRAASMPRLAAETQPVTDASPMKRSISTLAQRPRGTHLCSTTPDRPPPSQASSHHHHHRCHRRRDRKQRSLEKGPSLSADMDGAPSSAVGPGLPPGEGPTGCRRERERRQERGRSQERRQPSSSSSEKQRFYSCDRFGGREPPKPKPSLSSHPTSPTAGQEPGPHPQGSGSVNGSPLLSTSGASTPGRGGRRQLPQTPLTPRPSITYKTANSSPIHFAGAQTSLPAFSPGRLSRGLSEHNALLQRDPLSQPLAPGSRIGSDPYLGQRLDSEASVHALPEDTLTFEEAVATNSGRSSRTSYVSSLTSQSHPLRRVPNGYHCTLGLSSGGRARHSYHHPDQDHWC
T1 sequence (P54289 25-956 partner limits assumed): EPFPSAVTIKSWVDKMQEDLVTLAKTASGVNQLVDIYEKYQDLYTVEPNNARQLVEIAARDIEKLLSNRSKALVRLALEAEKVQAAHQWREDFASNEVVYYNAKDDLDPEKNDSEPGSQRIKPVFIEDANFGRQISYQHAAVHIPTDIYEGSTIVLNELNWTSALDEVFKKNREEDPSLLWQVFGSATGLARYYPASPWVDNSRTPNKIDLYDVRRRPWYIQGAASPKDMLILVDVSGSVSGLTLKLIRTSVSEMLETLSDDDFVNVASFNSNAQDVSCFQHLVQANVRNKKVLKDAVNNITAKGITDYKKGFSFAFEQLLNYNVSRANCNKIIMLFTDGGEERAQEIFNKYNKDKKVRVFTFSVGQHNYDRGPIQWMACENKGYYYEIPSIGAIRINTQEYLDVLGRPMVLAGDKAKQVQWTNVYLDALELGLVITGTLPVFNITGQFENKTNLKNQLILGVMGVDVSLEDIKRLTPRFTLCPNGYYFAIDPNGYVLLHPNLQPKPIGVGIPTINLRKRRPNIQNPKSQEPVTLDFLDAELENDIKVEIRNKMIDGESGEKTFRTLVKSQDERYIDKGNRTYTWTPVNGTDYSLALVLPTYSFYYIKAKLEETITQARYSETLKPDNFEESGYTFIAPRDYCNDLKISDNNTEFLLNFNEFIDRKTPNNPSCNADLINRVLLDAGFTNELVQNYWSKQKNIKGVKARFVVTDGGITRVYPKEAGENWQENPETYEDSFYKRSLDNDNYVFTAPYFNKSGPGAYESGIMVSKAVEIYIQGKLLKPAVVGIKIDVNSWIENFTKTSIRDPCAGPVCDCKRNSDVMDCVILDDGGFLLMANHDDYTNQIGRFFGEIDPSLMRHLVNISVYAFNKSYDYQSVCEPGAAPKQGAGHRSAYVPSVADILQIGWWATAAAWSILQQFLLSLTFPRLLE
T1 sequence (P54289 957-1103 partner limits assumed): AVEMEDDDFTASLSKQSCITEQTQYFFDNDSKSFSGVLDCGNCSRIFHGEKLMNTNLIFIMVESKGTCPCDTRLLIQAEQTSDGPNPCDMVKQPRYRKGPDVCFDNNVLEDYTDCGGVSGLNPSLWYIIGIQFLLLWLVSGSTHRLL
T1 sequence (P54284 whole entry partner): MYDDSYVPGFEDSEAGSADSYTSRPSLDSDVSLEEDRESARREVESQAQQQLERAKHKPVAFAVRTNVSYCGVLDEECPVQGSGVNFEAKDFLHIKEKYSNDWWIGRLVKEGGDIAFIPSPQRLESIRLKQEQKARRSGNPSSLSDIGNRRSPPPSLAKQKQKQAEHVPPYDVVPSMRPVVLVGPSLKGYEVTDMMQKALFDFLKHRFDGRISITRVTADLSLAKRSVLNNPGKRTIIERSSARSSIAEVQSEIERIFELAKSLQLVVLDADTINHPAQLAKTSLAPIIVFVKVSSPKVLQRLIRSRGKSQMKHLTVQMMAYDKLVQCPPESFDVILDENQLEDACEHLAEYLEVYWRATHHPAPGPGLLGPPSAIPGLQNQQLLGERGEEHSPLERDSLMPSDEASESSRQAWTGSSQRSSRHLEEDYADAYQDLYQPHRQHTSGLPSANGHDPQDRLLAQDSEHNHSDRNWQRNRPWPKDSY
Description: Inhibition of N-type calcium flux in IMR-32 cells (Indo-1 fluorescence, nitrendipine present). The assay is classed as cell-based. Conditions: 1 μM. In short, it runs like this: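 With L-type flux blocked by 5 μM nitrendipine, N-type Ca2+ entry was read as the Indo-1 emission ratio (400/490 nm, excitation 350 nm) at 30° C after KCl depolarization.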
(In general: Calcium assays in cells follow changes in intracellular calcium, usually with a dye or a luminescent sensor.)
As for `COC(=O)C(Cc1ccccc1)NC(=O)NC(CC(C)C)C(=O)NC(Cc1ccc(OCc2ccccc2)cc1)C(=O)OC(C)(C)C` (stereo not drawn) [Example 66, [S-(R*,R*)]-3-(4-Benzyloxy-phenyl)-{2-[3-(1-methoxycarbonyl-2-phenyl-ethyl)-ureido]-4-methyl-pentanoylamino}-propionic acid tert-butyl ester] ({OMe-Phe-CO}-Leu-Tyr(Bn)-OtBu; configuration not given here), the “Inhibition of Calcium Flux in IMR-32 Cells % Inhibition at 1 μM” value is given as 42%.

Staying with this assay, now noted: IMR-32.
For the compound `Cc1noc(C)c1S(=O)(=O)N[C@@H](CC(C)C)C(=O)N[C@@H](Cc1ccc(OCc2ccccc2)cc1)C(=O)OC(C)(C)C` [Example 111, [S-(R*,R*)]-3-(4-Benzyloxy-phenyl)-2-[2-(3,5-dimethyl-isoxazole-4-sulfonylamino)-4-methyl-pentanoylamino]-propionic acid tert-butyl ester], the inhibition at 1 µM was found to be 50% and the inhibition at 10 µM came to 96%. The corresponding values for `CC(C)C[C@H](NC(=O)N1CCCCCC1)C(=O)N[C@@H](Cc1ccc(OCc2ccccc2)cc1)C(=O)N1CCN(C)CC1` [Example 176, [S-(R*,R*)]-Azepane-1-carboxylic acid {1-[1-(4-benzyloxy-benzyl)-2-(4-methyl-piperazin-1-yl)-2-oxo-ethylcarbamoyl]-3-methyl-butyl}-amide] are 38% and 86%. Regarding `CC(C)C[C@H](NC(=O)N1CCCCCC1)C(=O)N[C@@H](Cc1ccc(OCc2ccccc2)cc1)C(=O)NCCCN1CCN(C)CC1` [Example 187, [S-(R*,R*)]-Azepane-1-carboxylic acid (1-{2-(4-benzyloxy-phenyl)-1-[3-(4-methyl-piperazin-1-yl)-propylcarbamoyl]-ethylcarbamoyl}-3-methyl-butyl)-amide], the inhibition at 1 µM was 20% and the inhibition at 10 µM was found to be 77%.

The same assay, now with this note: IMR-32 cells, 5 μM nitrendipine, K+ depolarization.
As for `Cc1noc(C)c1S(=O)(=O)N[C@@H](CC(C)C)C(=O)N[C@@H](Cc1ccc(OCc2ccccc2)cc1)C(=O)OC(C)(C)C` [Example 111, [S-(R*,R*)]-3-(4-Benzyloxy-phenyl)-2-[2-(3,5-dimethyl-isoxazole-4-sulfonylamino)-4-methyl-pentanoylamino]-propionic acid tert-butyl ester], the IC50 was determined as 1100 nM.

Consider `O=C(NCCN1CCCCC1)[C@H](Cc1ccc(OCc2ccccc2)cc1)NC(=O)[C@@H]1CCCN1C(=O)N1CCCCCC1` [Example 152, [S-(R*,R*)]-1-(Azepane-1-carbonyl)-pyrrolidine-2-carboxylic acid [2-(4-benzyloxy-phenyl)-1-(2-piperidin-1-yl-ethylcarbamoyl)-ethyl]-amide], for which the IC50 is 1900 nM. Consider `CC(C)(C)NC(=O)[C@H](Cc1ccc(OCc2ccccc2)cc1)NC(=O)[C@@H]1CCCN1C(=O)N1CCCCCC1` [Example 153, [S-(R*,R*)]-1-(Azepane-1-carbonyl)-pyrrolidine-2-carboxylic acid [2-(4-benzyloxy-phenyl)-1tert-butylcarbamoyl-ethyl]-amide], for which the IC50 came out at 3700 nM. `CSCC[C@H](NC(=O)N1CCCCCC1)C(=O)N[C@@H](Cc1ccc(OCc2ccccc2)cc1)C(=O)NCCN1CCCCC1` [Example 154, [S-(R*,R*)]-Azepane-1-carboxylic acid {1-[2-(4-benzyloxy-phenyl)-1-(2-piperidin-1-ylethylcarbamoyl)-ethylcarbamoyl]-3-methylsulfanyl-propyl}-amide]: the IC50 was found to be 9600 nM.

As for `CSCC[C@H](NC(=O)N1CCCCCC1)C(=O)N[C@@H](Cc1ccc(OCc2ccccc2)cc1)C(=O)NC(C)(C)C` [Example 155, [S-(R*,R*)]-Azepane1-carboxylic acid {1-[2-(4-benzyloxy-phenyl)-1-tert-butylcarbamoyl-ethylcarbamoyl]-3-methylsulfanyl-propyl}-amide], the IC50 turned out to be 2500 nM. In the case of `O=C(NCCN1CCCCC1)[C@H](Cc1ccc(OCc2ccccc2)cc1)NC(=O)[C@H](Cc1ccc(O)cc1)NC(=O)N1CCCCCC1` [Example 156, [S-(R*,R*)]-Azepane-1-carboxylic acid [1-[2-(4-benzyloxy-phenyl)-1-(2-piperidin-1-ylethylcarbamoyl)-ethylcarbamoyl]-2-(4-hydroxy-phenyl)-ethyl]-amide], the IC50 stood at 5300 nM.

Take `O=C(NCCN1CCCCC1)[C@H](Cc1ccc(OCc2ccccc2)cc1)NC(=O)[C@H](Cc1ccc(Br)cc1)NC(=O)N1CCCCCC1` [Example 157, [S-(R*,R*)]-Azepane-1-carboxylic acid [1-[2-(4-benzyloxy-phenyl)-1-(2-piperidin-1-ylethylcarbamoyl)-ethylcarbamoyl]-2-(4-bromo-phenyl)-ethyl]-amide]: the IC50 is 2300 nM.

Regarding `CC(C)(C)NC(=O)[C@H](Cc1ccc(OCc2ccccc2)cc1)NC(=O)[C@H](Cc1ccc(O)cc1)NC(=O)N1CCCCCC1` [Example 160, [S-(R*,R*)]-Azepane-1-carboxylic acid [1-[2-(4-benzyloxy-phenyl)-1-tert-butylcarbamoyl-ethylcarbamoyl]-2-(4-hydroxy-phenyl)-ethyl]-amide], the IC50 was 2500 nM. Regarding `CC(C)(C)NC(=O)[C@H](Cc1ccc(OCc2ccccc2)cc1)NC(=O)[C@H](Cc1ccc(OC(C)(C)C)cc1)NC(=O)N1CCCCCC1` [Example 163, [S-(R*,R*)]-Azepane-1-carboxylic acid [1-[2-(4-benzyloxy-phenyl)-1-tert-butylcarbamoyl-ethylcarbamoyl]-2-(4-tert-butoxy-phenyl)-ethyl]-amide], the IC50 is 490 nM. Consider `CC(C)(C)NC(=O)[C@H](Cc1ccc(OCc2ccccc2)cc1)NC(=O)[C@H](CCCCC(=O)OC(C)(C)C)NC(=O)N1CCCCCC1` [Example 164, [S-(R*,R*)]-6-[(Azepane-1-carbonyl)-amino]-6-[2-(4-benzyloxy-phenyl)-1-tert-butylcarbamoyl-ethylcarbamoyl]-hexanoic acid tert-butyl ester], for which the IC50 is 900 nM.

Consider `CC(C)C[C@H](NC(=O)N1CCCCCC1)C(=O)N[C@@H](Cc1ccc(OCc2ccccc2)cc1)C(=O)N1CCOCC1` [Example 166, [S-(R*,R*)]-Azepane-1-carboxylic acid {1-[1-(4-benzyloxy-benzyl)-2-morpholin-4-yl-2-oxo-ethylcarbamoyl]-3-methyl-butyl}-amide], for which the half-maximal inhibitory concentration (IC50) amounted to 1300 nM. On to `CCCCCCNC(=O)[C@H](Cc1ccc(OCc2ccccc2)cc1)NC(=O)[C@H](CC(C)C)NC(=O)N1CCCCCC1` [Example 168, [S-(R*,R*)]-Azepane-1-carboxylic acid {1-[2-(4-benzyloxy-phenyl)-1-hexylcarbamoyl-ethylcarbamoyl]-3-methyl-butyl}-amide], for which the IC50 is 680 nM.

With `CCCNC(=O)[C@H](Cc1ccc(OCc2ccccc2)cc1)NC(=O)[C@H](CC(C)C)NC(=O)N1CCCCCC1` [Example 169, [S-(R*,R*)]-Azepane-1-carboxylic acid {1-[2-(4-benzyloxy-phenyl)-1-propylcarbamoyl-ethylcarbamoyl]-3-methyl-butyl}-amide], the IC50 was found to be 1600 nM. Same read-out and setting: the figure for `CC(C)C[C@H](NC(=O)N1CCCCCC1)C(=O)N[C@@H](Cc1ccc(OCc2ccccc2)cc1)C(=O)NCCN1CCCC1=O` [Example 170, [S-(R*,R*)]-Azepane-1-carboxylic acid (1-{2-(4-benzyloxy-phenyl)-1-[2-(2-oxo-pyrrolidin-1yl)-ethylcarbamoyl]-ethylcarbamoyl}-3-methyl-butyl)-amide] is 1300 nM; for `CC(C)C[C@H](NC(=O)N1CCCCCC1)C(=O)N[C@@H](Cc1ccc(OCc2ccccc2)cc1)C(=O)NCCc1c[nH]cn1` [Example 172, [S-(R*,R*)]-Azepane-1-carboxylic acid (1-{2-(4-benzyloxy-phenyl)-1-[2-(1H-imidazol-4-yl)ethylcarbamoyl]-ethylcarbamoyl}-3-methyl-butyl)-amide] it is 2300 nM.

As to `CC(C)C[C@H](NC(=O)N1CCCCCC1)C(=O)N[C@@H](Cc1ccc(OCc2ccccc2)cc1)C(=O)NCCN(C)C` [Example 175, [S-(R*,R*)]-Azepane-1-carboxylic acid {1-[2-(4-benzyloxy-phenyl)-1-(2-dimethylamino-ethylcarbamoyl)-ethylcarbamoyl]-3-methyl-butyl}-amide], the IC50 was 2700 nM. Turning to `CC(C)C[C@H](NC(=O)N1CCCCCC1)C(=O)N[C@@H](Cc1ccc(OCc2ccccc2)cc1)C(=O)N1CCN(C)CC1` [Example 176, [S-(R*,R*)]-Azepane-1-carboxylic acid {1-[1-(4-benzyloxy-benzyl)-2-(4-methyl-piperazin-1-yl)-2-oxo-ethylcarbamoyl]-3-methyl-butyl}-amide], the IC50 was 1400 nM.

Regarding `CC(C)C[C@H](NC(=O)N1CCCCCC1)C(=O)N[C@@H](Cc1ccc(OCc2ccccc2)cc1)C(=O)NCc1ccncc1` [Example 178, [S-(R*,R*)]-Azepane-1-carboxylic acid (1-{2-(4-benzyloxy-phenyl)-1-[(pyridin-4-ylmethyl)carbamoyl]-ethylcarbamoyl}-3-methyl-butyl)-amide], the IC50 came out at 3100 nM. In the case of `CC(C)C[C@H](NC(=O)N1CCCCCC1)C(=O)N[C@@H](Cc1ccc(OCc2ccccc2)cc1)C(=O)N1CCC[C@H]1CN1CCCC1` [Example 179, Azepane-1-carboxylic acid {(S)-1-[(S)-1-(4-benzyloxy-benzyl)-2-oxo-2-[(S)-2-pyrrolidin-1-ylmethyl-pyrrolidin-1-yl]-ethylcarbamoyl]-3-methyl-butyl}-amide], the IC50 is 1400 nM.

For `CC(C)C[C@H](NC(=O)N1CCCCCC1)C(=O)N[C@@H](Cc1ccc(OCc2ccccc2)cc1)C(=O)NCCN1CCCC1` [Example 181, [S-(R*,R*)]-Azepane-1-carboxylic acid {1-[2-(4-benzyloxy-phenyl)-1-(2-pyrrolidin-1-ylethylcarbamoyl)-ethylcarbamoyl]3-methyl-butyl}-amide], the IC50 was found to be 2800 nM. On to `CC(C)C[C@H](NC(=O)N1CCCCCC1)C(=O)NC(Cc1ccc(OCc2ccccc2)cc1)C(=O)N[C@@H]1CN2CCC1CC2` (stereo partly drawn) [Example 182, Azepane-1-carboxylic acid {(S)-1-[-1-[(S)-1-aza-bicyclo [2.2.2]-3-ylcarbamoyl]-2-(4-benzyloxy-phenyl)-ethylcarbamoyl]-3-methyl-butyl}-amide], for which the IC50 worked out at 7700 nM. With `CC(C)C[C@H](NC(=O)N1CCCCCC1)C(=O)N[C@@H](Cc1ccc(OCc2ccccc2)cc1)C(=O)N1CCC(N2CCCCC2)CC1` [Example 185, [S-(R*,R*)]-Azepane-1-carboxylic acid {1-[1-(4-benzyloxy-benzyl)-2-[1,4′]bipiperidinyl-1′-yl-2-oxo-ethylcarbamoyl]-3-methyl-butyl}-amide], the IC50 turned out to be 2300 nM.

For `CC(C)C[C@H](NC(=O)N1CCCCCC1)C(=O)N[C@@H](Cc1ccc(OCc2ccccc2)cc1)C(=O)NCCCN1CCN(C)CC1` [Example 187, [S-(R*,R*)]-Azepane-1-carboxylic acid (1-{2-(4-benzyloxy-phenyl)-1-[3-(4-methyl-piperazin-1-yl)-propylcarbamoyl]-ethylcarbamoyl}-3-methyl-butyl)-amide], the IC50 came out at 4000 nM.

Values taken from US6423689B1, “Peptidyl calcium channel blockers” (Warner-Lambert Company, priority 1997, dated 2002).
